For assay [1], the system named is rat small intestine (ileum) segments. Nature of the assay: Rat small intestine (ileum) strip relaxation (nifedipine-sensitive force). Further details: species or system rat (Sprague Dawley). The note with it: integral of nifedipine-sensitive force pre- and 30 min post-compound; compound concentration not given. From the text:
The ability of the compounds of the invention to relax rat small intestine tissue as a model for the treatment of irritable bowel syndrome is described as follows. Male rats (Harlan, Sprague Dawley, 250–350 g) were sacrificed by decapitation. A portion of small intestine (ileum) was removed and the attached connective tissues and intestinal contents removed. The ileum was cut into segments of ≧1 cm in length. The segments were mounted longitudinally between fixed hooks in organ baths containing warm (37° C.) physiological salt solution (composition in mM: NaCl 118.4, KCl 4.7, KH2PO4 1.2, MgSO4 1.2, CaCl2 1.8, Glucose 10.1, NaHCO3 25; gassed with 95% O2/5% CO2, pH 7.4). A stable tension of ˜1.5 g was maintained in the tissue segments during the equilibration period of 45 minutes. Changes in muscle tension were measured with isometric force transducers (Grass, FT-03C) and recorded using AcqKnowledge data acquisition system (AcqKnowledge for MP100WS, Biopac Systems Inc., Goleta, Calif.). Compound or vehicle was added in the baths for 30 minutes. “Zero” active force was established at the end of the experiment using nifedipine (20 μM). The effects of compounds or vehicle on force was determined by measuring the integral of nifedipine-sensitive force (including resting tone and spontaneous contractions) pre- and 30 min post-compound (or vehicle) addition. Results are expressed as the percentage inhibition of force. DMSO vehicle inhibited force (integral) by −0.6±3.0% (n=25).

The subject of assay [2] is cloned mammalian (mSlo or hSlo) BK channels heterologously expressed in Xenopus oocytes. Nature of the assay: Assay for BK channel openers: two-electrode voltage clamp of BK-mediated outward current in Xenopus oocytes. It is filed as cell-based. The note with it: percent increase over BK current in controls, voltage step to +140 mV, IBTX-sensitive current. The procedure: The ability of the compounds of the invention to open BK channels and increase whole-cell outward (K^+) BK-mediated currents was assessed under voltage-clamp conditions by determining their ability to increase cloned mammalian (mSlo or hSlo) BK-mediated outward current heterologously expressed in Xenopus oocytes [Butler, A., et al., Science 1993, 261, 221–224; Dworetzky, S. I., et al., Mol. Brain Res. 1994, 27, 189–193; Gribkoff, V. K., et al., Mol. Pharmacol. 1996, 50, 206–217]. The two BK constructs employed represent nearly structurally identical homologous proteins, and have proven to be pharmacologically indistinguishable in our tests. To isolate BK current from native (background, non-BK) current, the specific and potent BK channel-blocking toxin iberiotoxin (IBTX) [Galvez, A., et al., J. Biol. Chem. 1990, 265, 11083–11090] was employed at a supramaximal concentration, e.g., 50–100 nanomolar (“nM”). The relative contribution of BK channel-mediated current to total outward current was determined by subtraction of the current remaining in the presence of IBTX (non-BK current) from the current profiles obtained in all other experimental conditions (control, drug, and wash) [Gribkoff, V. K. et al., Mol. Pharmacol. 1996, 50, 206–217]. […] All compounds were tested in 5–10 oocytes and are reported at the indicated concentration of 20 micromolar (“μM”) (or as otherwise indicated); the effect of the selected compounds of the invention on BK current was expressed as the percent of control IBTX-sensitive current at a single transmembrane voltage (+140 mV) and is listed in Table 1. Recordings were accomplished using standard two-electrode voltage clamp techniques [Stuhmer, W., et al., Methods in Enzymology, 1992, 207, 319–339]; voltage-clamp protocols consisted of 500–750 milliseconds (“ms”) duration step depolarizations, from a holding potential of −60 mV, to a final voltage up to +140 mV in 20 mV steps. The experimental media (modified Barth's solution) consisted of millimolar (“mM”): NaCl (88), NaHCO3 (2.4), KCl (1.0), HEPES (10), MgSO4 (0.82), Ca(NO3)2 (0.33), CaCl2 (0.41); pH 7.5.

We go through 15 compounds from patent US7049309B2, “3-Thia-4-arylquinolin-2-one potassium channel modulators” (Bristol-Myers Squibb Company, priority 2003, dated 2006).

For `COc1ccc(Cl)cc1-c1c(SCC(O)CN2CCN(CCO)CC2)c(=O)[nH]c2ccc(C(F)(F)F)cc12` (stereo not shown) [Example 79, 4-(5-Chloro-2-methoxyphenyl)-3-[[2-hydroxy-3-[4-(2-hydroxyethyl)-1-piperazinyl]propyl]thio]-6-(trifluoromethyl)-2(1H)-quinolinone], in assay [1], the “% inhibition of force (RSI strips)” value came to 10%. The “% MaxiK opening” value in assay [2] (at 20 μM) is on record as 150%. Turning to `COc1ccc(Cl)cc1-c1c(SCC(O)CN2CCC(C)CC2)c(=O)[nH]c2ccc(C(F)(F)F)cc12` (stereo not shown) [Example 107, 4-(5-Chloro-2-methoxyphenyl)-3-[[2-hydroxy-3-(4-methyl-1-piperidinyl)propyl]thio]-6-(trifluoromethyl)-2(1H)-quinolinone], the “% MaxiK opening” value in assay [2] (at 20 μM) is reported as 115%. Same read-out and setting: as for `O=c1[nH]c2ccc(C(F)(F)F)cc2c(-c2cc(Cl)ccc2O)c1SCC(O)CN1CCCC1` (stereo not shown) [Example 81, 4-(5-Chloro-2-hydroxyphenyl)-3-[[2-hydroxy-3-(1-pyrrolidinyl)propyl]thio]-6-(trifluoromethyl)-2(1H)-quinolinone], the figure is 192%; as for `COc1ccc(Cl)cc1-c1c(SCC(O)CN2CCN(C)CC2)c(=O)[nH]c2ccc(C(F)(F)F)cc12` (stereo not shown) [Example 102, 4-(5-Chloro-2-methoxyphenyl)-3-[[2-hydroxy-3-(4-methyl-1-piperazinyl)propyl]thio]-6-(trifluoromethyl)-2(1H)-quinolinone], 163%. For the compound `COc1ccc(Cl)cc1-c1c(SCC(O)CN2CCN(c3ncccn3)CC2)c(=O)[nH]c2ccc(C(F)(F)F)cc12` (stereo not shown) [Example 92, 4-(5-Chloro-2-methoxyphenyl)-3-[[2-hydroxy-3-[4-(2-pyrimidinyl)-1-piperazinyl]propyl]thio]-6-(trifluoromethyl)-2(1H)-quinolinone], the “% MaxiK opening” value in assay [2] (at 1 μM) is 85^⋄ %. `O=c1[nH]c2ccc(C(F)(F)F)cc2c(-c2cc(Cl)ccc2O)c1SCC(O)CN1CCN(CCO)CC1` (stereo not shown) [Example 84, 4-(5-Chloro-2-hydroxyphenyl)-3-[[2-hydroxy-3-[4-(2-hydroxyethyl)-1-piperazinyl]propyl]thio]-6-(trifluoromethyl)-2(1H)-quinolinone]: the “% inhibition of force (RSI strips)” value in assay [1] is 55%. Further, the “% MaxiK opening” value in assay [2] (at 20 μM) amounted to 287%. As for `CN(C)CCN1CCN(CC(O)CSc2c(-c3cc(Cl)ccc3O)c3cc(C(F)(F)F)ccc3[nH]c2=O)CC1` (stereo not shown) [Example 86, 4-(5-Chloro-2-hydroxyphenyl)-3-[[3-[4-[2-(dimethylamino)ethyl]-1-piperazinyl]-2-hydroxypropyl]thio]-6-(trifluoromethyl)-2(1H)-quinolinone], in assay [2] (at 20 μM), the “% MaxiK opening” value was 124%. Turning to `COc1ccc(Cl)cc1-c1c(SCC(O)CN2CCC(O)C2)c(=O)[nH]c2ccc(C(F)(F)F)cc12` (stereo not shown) [Example 91, 4-(5-Chloro-2-methoxyphenyl)-3-[[2-hydroxy-3-(3-hydroxy-1-pyrrolidinyl)propyl]thio]-6-(trifluoromethyl)-2(1H)-quinolinone], in assay [2] (at 20 μM), the “% MaxiK opening” value is given as 125%.

As for `CCN(CC)CC(O)CSc1c(-c2cc(Cl)ccc2O)c2cc(C(F)(F)F)ccc2[nH]c1=O` (stereo not shown) [Example 74, 4-(5-Chloro-2-hydroxyphenyl)-3-[[3-(diethylamino)-2-hydroxypropyl]thio]-6-(trifluoromethyl)-2(1H)-quinolinone], in assay [1], the “% inhibition of force (RSI strips)” value is 46%. Besides, the “% MaxiK opening” value in assay [2] (at 20 μM) stood at 192%. In the case of `O=c1[nH]c2ccc(C(F)(F)F)cc2c(-c2cc(Cl)ccc2O)c1SCC(O)CN1CCOCC1` (stereo not shown) [Example 82, 4-(5-Chloro-2-hydroxyphenyl)-3-[[2-hydroxy-3-(4-morpholinyl)propyl]thio]-6-(trifluoromethyl)-2(1H)-quinolinone], the “% MaxiK opening” value in assay [2] (at 20 μM) is recorded as 292%.

In the case of `COc1ccc(Cl)cc1-c1c(SCC(O)CN2CCSCC2)c(=O)[nH]c2ccc(C(F)(F)F)cc12` (stereo not shown) [Example 90, 4-(5-Chloro-2-methoxyphenyl)-3-[[2-hydroxy-3-(4-thiomorpholinyl)propyl]thio]-6-(trifluoromethyl)-2(1H)-quinolinone], the “% MaxiK opening” value in assay [2] (at 20 μM) is 97%. Same read-out and setting: the figure for `COc1ccc(Cl)cc1-c1c(SCC(O)CN2CCN(C(C)=O)CC2)c(=O)[nH]c2ccc(C(F)(F)F)cc12` (stereo not drawn) [Example 97, 4-Acetyl-alpha-[[[4-(5-chloro-2-methoxyphenyl)-1,2-dihydro-2-oxo-6-(trifluoromethyl)-3-quinolinyl]thio]methyl]-1-piperazineethanol] is 192%; for `CN(C)CCCN(C)CC(O)CSc1c(-c2cc(Cl)ccc2O)c2cc(C(F)(F)F)ccc2[nH]c1=O` (stereo not shown) [Example 87, 4-(5-Chloro-2-hydroxyphenyl)-3-[[3-[[3-(dimethylamino)propyl]methylamino]-2-hydroxypropyl]thio]-6-(trifluoromethyl)-2(1H)-quinolinone] it is 214%. Take `O=c1[nH]c2ccc(C(F)(F)F)cc2c(-c2cc(Cl)ccc2O)c1SCC(O)CN1CCSCC1` (stereo not shown) [Example 85, 4-(5-Chloro-2-hydroxyphenyl)-3-[[2-hydroxy-3-(4-thiomorpholinyl)propyl]thio]-6-(trifluoromethyl)-2(1H)-quinolinone]: the “% inhibition of force (RSI strips)” value in assay [1] was 40%. The “% MaxiK opening” value in assay [2] (at 20 μM) is listed as 319%. As for `CN1CCN(CCC(O)CSc2c(-c3cc(Cl)ccc3O)c3cc(C(F)(F)F)ccc3[nH]c2=O)CC1` (stereo not shown) [Example 4, 4-(5-Chloro-2-hydroxyphenyl)-3-[[2-hydroxy-4-(4-methyl-1-piperazinyl)butyl]thio]-6-(trifluoromethyl)-2(1H)-quinolinone], the “% MaxiK opening” value in assay [2] (at 20 μM) was 515%.
